# Measurements taken from US10759797B2, “Pharmaceutically acceptable salt of EGFR inhibitor, crystal form thereof, preparation method therefor and application thereof” (Wuxi Shuangliang Biotechnology Co., Ltd., priority 2017, dated 2020).
# Structures can show the parent of a compound that is named as a salt.
# What was measured:
# Format in all cases: physicochemical
# [1] = Hygroscopicity study of crystal forms (Chinese Pharmacopoeia 2015, part 4, appendix 9103); conditions: for Hygroscopicity as compared with that of the EGFR inhibitor present in a free base form: 25° C./RH 80%; for Weight gain over 6 hours (%) / Weight gain over 24 hours (%) / Hygroscopicity: 25° C.±1° C., relative humidity 80%±2%; for Hygroscopicity: Pharmacopoeia class
# Procedure: Hygroscopicity comparison study was carried out for various pharmaceutically acceptable salts of EGFR inhibitor present in the form of crystal in Examples 1 to 3 and 5 to 6, the amorphous EGFR inhibitor phosphate salt in Example 4, and the EGFR inhibitor present in a free base form. Tests were conducted according to the method in the Pharmacopoeia of the People's Republic of China, 2015 edition, part 4, appendix 9103 (temperature: 25° C.±1° C., relative humidity: 80%±2%), and the results were as shown in Table 6.
# With regard to the description of hygroscopic properties and definition of hygroscopic weight gain, refer to the Pharmacopoeia of the People's Republic of China, 2015 edition, part 4, appendix 9103, experimental guideline of drug hygroscopicity, herein descried by way of example as follows.
# Deliquescence: absorb enough water to form a liquid.
# Very hygroscopic: hygroscopic weight gain […] 15%.
# Hygroscopic: hygroscopic weight gain less than 15% but not less than 2%.
# Non- or almost non-hygroscopic: hygroscopic weight gain less than 0.2%.
# [2] = One month accelerated stability study at 40° C./75% RH (shape, purity, XRPD); conditions: for Appearance, 1 month / Purity (%), 1 month / XRPD pattern (0 month versus 1 month): after 1 month at 40° C./75% RH; for Appearance, 0 month / Purity (%), 0 month: start of study (0 month)
# Procedure: The six pharmaceutically acceptable salts of EGFR inhibitor in Examples 1 to 6 were placed in a condition of 40° C./75% RH, and a one month accelerated stability study was carried out. Samples were taken at the end of 0 and 1 month respectively, and emphasis was placed upon the shape, purity and crystal form stability (XRPD pattern) of the samples.
# Stable refers to no occurrence of degradation and no detection of transformation to other crystal forms by analytical means such as chromatography and XRPD.
# [3] = Solubility study in water (saturated solutions, HPLC linear equation; Pharmacopoeia and BCS classification); conditions: for BCS level (Do): Do=(Mo/Vo)/Cs, Mo 80 mg, Vo about 250 ml, Do≤1 solubility high, Do>1 low; for Solubility in water, 1 h / Solubility in water, 4 h / Solubility in water, 24 h: saturated solution; for Solubility in water, 1 h: standing 1 hour; for Solubility in water, 4 h: standing 4 hours; for Solubility in water, 24 h: standing 24 hours
# Excerpt: (§1) Various pharmaceutically acceptable salts of EGFR inhibitor present in form of crystal in Examples 1 to 3 and 5 to 6 were classified with reference to the relevant requirements of the Pharmacopoeia of the People's Republic of China and the Bio-pharmaceutics Classification System (BCS).
# (§2) (a) Relevant Requirements of Solubility in the Pharmacopoeia of the People's Republic of China, 2015 Edition, General Notices:
# (§3) (b) Relevant Requirements of Solubility in BCS: Do=(Mo/Vo)/Cs;
# (§4) wherein Do: dose index; Mo: highest single dose of the drug (with reference to the relevant dose of osimertinib, tentatively set to 80 mg); Vo: the volume of body fluid required for dissolving the drug (about 250 ml); Cs: saturated solubility of the drug;
# (§5) if Do≤1, solubility is high; and if Do>1, solubility is low.
# (§6) Using an EGFR inhibitor free base as a control, linear regression was carried out by plotting peak area versus concentration, and the corresponding linear equation was obtained in the range of 0.025 to 1.5 mg/ml: A=19775.0411c+2.4256, r=1.0000.
# Water was used as solvent. An appropriate amount of the EGFR inhibitor mesylate salt, p-toluenesulfonate salt, phosphate salt, hydrochloride salt and citrate salt prepared in Examples 1 to 3 and 5 to 6 was weighed, and prepared into saturated solutions. Samples were taken after standing for 1 hour, 4 hours, and 24 hours, respectively, and the concentration of each sample in saturation state was calculated according to the linear equation.
# [4] = as above; conditions: in water and artificial gastric fluid
# [5] = Solubility study in artificial gastric fluid (saturated solutions, HPLC linear equation; Pharmacopoeia and BCS classification); conditions: for Pharmacopoeia of the People's Republic of China Solubility level / Solubility in artificial gastric fluid, 1 h / Solubility in artificial gastric fluid, 4 h / Solubility in artificial gastric fluid, 24 h / BCS level (Do): artificial gastric fluid; for Solubility in artificial gastric fluid compared with water: artificial gastric fluid versus water; for Solubility in artificial gastric fluid, 1 h / Solubility in artificial gastric fluid, 4 h / Solubility in artificial gastric fluid, 24 h: saturated solution; for Solubility in artificial gastric fluid, 1 h: standing 1 hour; for Solubility in artificial gastric fluid, 4 h: standing 4 hours; for Solubility in artificial gastric fluid, 24 h: standing 24 hours; for BCS level (Do): Do=(Mo/Vo)/Cs, Mo 80 mg, Vo about 250 ml, Do≤1 solubility high, Do>1 low; for Degradation in the solubility study: water and artificial gastric fluid, up to 24 hours
# Excerpt: as §1, §2, §3, §4, §5, §6
# Artificial gastric fluid was used as solvent. An appropriate amount of the EGFR inhibitor mesylate salt (crystal form A), p-toluenesulfonate salt (crystal form B), phosphate salt (crystal form C), phosphate salt (amorphous), hydrochloride salt (crystal form C), and citrate salt (crystal form E) prepared in Examples 1 to 6 was weighed, and prepared into saturated solutions. Samples were taken after standing for 1 hour, 4 hours, and 24 hours, respectively, and the concentration of each sample in saturation state was calculated according to the linear equation.
# [6] = listed as citrate salt (crystal form E)
# [7] = listed as mesylate salt (crystal form A)
# [8] = listed as p-toluenesulfonate salt (crystal form B)
# [9] = listed as hydrochloride salt (crystal form D)
Weight gain over 6 hours (%) [1] [%],Weight gain over 24 hours (%) [1] [%],Hygroscopicity [1],XRPD pattern (0 month versus 1 month) [2],Pharmacopoeia of the People's Republic of China Solubility level [3],BCS level (Do) [3],"Solubility in water, 1 h [3] [mg/mL]","Solubility in water, 4 h [3] [mg/mL]","Solubility in water, 24 h [3] [mg/mL]",Solubility with reference to Pharmacopoeia solubility classification [4],Pharmacopoeia of the People's Republic of China Solubility level [5],"Solubility in artificial gastric fluid, 1 h [5] [mg/mL]","Solubility in artificial gastric fluid, 4 h [5] [mg/mL]","Solubility in artificial gastric fluid, 24 h [5] [mg/mL]",BCS level (Do) [5],Degradation in the solubility study [5],Compound,Solubility in artificial gastric fluid compared with water [5],further results
1.2,1.5,slightly hygroscopic,consistent,freely soluble,0.0034 < 1,88.32,92.14,94.56,high,freely soluble,123.56,136.76,138.91,0.0023 < 1,no significant degradation,C=CC(=O)Nc1cc(Nc2nccc(-c3cn(C)c4cccnc34)n2)c(OC)cc1N(C)CCN(C)C [phosphate salt (amorphous)],higher solubility in artificial gastric fluid than in water,"Hygroscopicity as compared with that of the EGFR inhibitor present in a free base form ([1]; listed as amorphous phosphate salt): lower hygroscopicity; Appearance, 1 month [2]: light grey solid; Purity (%), 1 month [2]: 98.7%; Appearance, 0 month [2]: light grey solid; Purity (%), 0 month [2]: 98.9%"
2.23,2.48,hygroscopic,consistent,freely soluble,0.0024 < 1,143.59,137.34,133.57,high,freely soluble,168.51,196.47,176.88,0.0018 < 1,no significant degradation,C=CC(=O)Nc1cc(Nc2nccc(-c3cn(C)c4cccnc34)n2)c(OC)cc1N(C)CCN(C)C [citrate salt],higher solubility in artificial gastric fluid than in water,"Hygroscopicity as compared with that of the EGFR inhibitor present in a free base form ([1]; listed as citrate salt crystal form E): comparable hygroscopicity; Appearance, 1 month [2, 6]: light grey solid; Purity (%), 1 month [2, 6]: 99.1%; Appearance, 0 month [2, 6]: light grey solid; Purity (%), 0 month [2, 6]: 98.9%"
1.7,2.2,hygroscopic,–,–,606.30 > 1,<0.025,<0.025,<0.025,–,–,0.84,0.86,0.71,0.4515 < 1,no significant degradation,C=CC(=O)Nc1cc(Nc2nccc(-c3cn(C)c4cccnc34)n2)c(OC)cc1N(C)CCN(C)C [free base],higher solubility in artificial gastric fluid than in water,–
6.86,10.64,hygroscopic,consistent,freely soluble,0.0013 < 1,223.02,224.00,255.75,high,freely soluble,248.77,370.37,379.12,0.0008 < 1,no significant degradation,C=CC(=O)Nc1cc(Nc2nccc(-c3cn(C)c4cccnc34)n2)c(OC)cc1N(C)CCN(C)C [mesylate salt],higher solubility in artificial gastric fluid than in water,"Hygroscopicity as compared with that of the EGFR inhibitor present in a free base form ([1]; listed as mesylate salt crystal form A): higher hygroscopicity; Appearance, 1 month [2, 7]: light brown solid; Purity (%), 1 month [2, 7]: 99.2%; Appearance, 0 month [2, 7]: light brown solid; Purity (%), 0 month [2, 7]: 99.0%"
0.04,0.04,–,consistent,slightly soluble,0.2057 < 1,1.82,1.78,1.56,–,soluble,46.21,46.75,47.03,0.0068 < 1,no significant degradation,C=CC(=O)Nc1cc(Nc2nccc(-c3cn(C)c4cccnc34)n2)c(OC)cc1N(C)CCN(C)C [p-toluenesulfonate salt],higher solubility in artificial gastric fluid than in water,"Hygroscopicity as compared with that of the EGFR inhibitor present in a free base form ([1]; listed as p-toluenesulfonate salt crystal form B): lower hygroscopicity; Appearance, 1 month [2, 8]: light tan solid; Purity (%), 1 month [2, 8]: 98.7%; Appearance, 0 month [2, 8]: light tan solid; Purity (%), 0 month [2, 8]: 98.7%"
0.72,1.29,slightly hygroscopic,consistent,sparingly soluble,0.0302 < 1,13.43,11.09,10.59,–,soluble,83.79,79.18,70.03,0.0046 < 1,no significant degradation,C=CC(=O)Nc1cc(Nc2nccc(-c3cn(C)c4cccnc34)n2)c(OC)cc1N(C)CCN(C)C [hydrochloride salt],higher solubility in artificial gastric fluid than in water,"Hygroscopicity as compared with that of the EGFR inhibitor present in a free base form ([1]; listed as hydrochloride salt crystal form D): lower hygroscopicity; Appearance, 1 month [2, 9]: tan solid; Purity (%), 1 month [2, 9]: 99.3%; Appearance, 0 month [2, 9]: tan solid; Purity (%), 0 month [2, 9]: 99.2%"
